Source: patent US20220313707A1 (priority 2021, published 2022)

Test system: influenza A Hp1N1 virus
Set-up: species or system mice
Details: mouse, in vivo

| Compound | 14 d survival rate [%] | Mean days of survival [days] | Survival number (pcs.) | Survival rate (%) |
| --- | --- | --- | --- | --- |
| CC1(C)C(=O)N(c2ccc(C#N)c(C(F)(F)F)c2)C(=S)N1c1ccc(OC[C@@H](O)CO)cc1 [SHR-3680] | 50 | 11.3 ± 2.87 | 5 | 50 |
| CC1(C)C(=O)N(c2ccc(C#N)c(C(F)(F)F)c2F)C(=S)N1c1ccc(CCCc2ncco2)nc1 [Proxalutamide] | 40 | 11.0 ± 2.83 | 4 | 40 |
